The record followed here is patent publication US9795139B2, “Molecules having pesticidal utility, and intermediates, compositions, and processes, related thereto” (priority 2015, dated 2017).

In experiment [1] the test system is Beet Armyworm (Spodoptera exigua, LAPHEG). In words: Bioassay on Beet Armyworm (BAW), 128-well diet tray assay. To be noted: 168 h, 50 μg/cm^2 on artificial diet, second instar larvae, 25° C., five to seven days, average of eight wells, read-out: BAW % Control (or Mortality) rating. It is filed as in vivo. As to the method:
(§1) Certain molecules disclosed in this document were tested against BAW and CL using procedures described in the following examples. In the reporting of the results, the “BAW & CL Rating Table” was used (See Table Section).
Bioassays on BAW were conducted using a 128-well diet tray assay. One to five second instar BAW larvae were placed in each well (3 mL) of the diet tray that had been previously filled with approximately 1.5 mL of artificial diet to which 50 μg/cm^2 of the test molecule (dissolved in 50 μL of 90:10 acetone-water mixture) had been applied (to each of eight wells) and then allowed to dry. Trays were covered with a clear self-adhesive cover, vented to allow gas exchange, and held at 25° C., 14:10 light-dark for five to seven days. Percent mortality was recorded for the larvae in each well; activity in the eight wells was then averaged. The results are indicated in the table entitled “Table ABC: Biological Results” (See Table Section).

The subject of experiment [2] is Cabbage Looper (Trichoplusia ni, TRIPNI). In words: Bioassay on Cabbage Looper (CL), 128-well diet tray assay. It is filed as in vivo. To be noted: 168 h, 50 μg/cm^2 on artificial diet, second instar larvae, 25° C., five to seven days, average of eight wells, read-out: CL % Control (or Mortality) rating. On the procedure:
as §1
Bioassays on CL were conducted using a 128-well diet tray assay. one to five second instar CL larvae were placed in each well (3 mL) of the diet tray that had been previously filled with 1 mL of artificial diet to which 50 μg/cm^2 of the test molecule (dissolved in 50 μL of 90:10 acetone-water mixture) had been applied (to each of eight wells) and then allowed to dry. Trays were covered with a clear self-adhesive cover, vented to allow gas exchange, and held at 25° C., 14:10 light-dark for five to seven days. Percent mortality was recorded for the larvae in each well; activity in the eight wells was then averaged. The results are indicated in the table entitled “Table ABC: Biological Results” (See Table Section).

Consider `O=C(NC1CC(F)(F)C1)c1cc(NC(=O)[C@H]2[C@H](c3cc(Cl)c(Cl)c(Cl)c3)C2(Cl)Cl)ccc1Cl` (relative stereo) [Molecule F6, trans-2-Chloro-5-(2,2-dichloro-3-(3,4,5-trichlorophenyl)cyclopropanecarboxamido)-N-(3,3-difluorocyclobutyl)benzamide], for which the mortality at 50 µg/cm2 in experiment [1] and in experiment [2] was 50 to 100% each time.
As to `O=C(NC1CCSC1)c1cc(NC(=O)[C@H]2[C@H](c3cc(Cl)cc(Cl)c3)C2(Cl)Cl)ccc1Cl` (relative stereo) [Molecule F7, trans-2-Chloro-5-(2,2-dichloro-3-(3,5-dichlorophenyl)cyclopropanecarboxamido)-N-(tetrahydrothiophen-3-yl)benzamide], the mortality at 50 µg/cm2 in experiment [1] and in experiment [2] was 50 to 100% each time.
`O=C(NC1CC(F)(F)C1)c1cc(NC(=O)[C@H]2[C@H](c3cc(Cl)c(Cl)cc3Cl)C2(Cl)Cl)ccc1Cl` (relative stereo) [Molecule F20, trans-2-Chloro-5-(2,2-dichloro-3-(2,4,5-trichlorophenyl)cyclopropanecarboxamido)-N-(3,3-difluorocyclobutyl)benzamide]: the mortality at 50 µg/cm2 in experiment [1] and in experiment [2] was 50 to 100% each time.
Turning to `N#CC1(NC(=O)c2cc(NC(=O)[C@H]3[C@H](c4ccc(C(F)(F)F)cc4)C3(Cl)Cl)ccc2Cl)CC1` (relative stereo) [Molecule F23, trans-2-Chloro-N-(1-cyanocyclopropyl)-5-(2,2-dichloro-3-(4-(trifluoromethyl)phenyl)cyclopropanecarboxamido)benzamide], the mortality at 50 µg/cm2 in experiment [1] and in experiment [2] was 50 to 100% throughout.
As to `O=C(NC1CC(F)(F)C1)c1cc(NC(=O)[C@H]2[C@H](c3cc(C(F)(F)F)cc(C(F)(F)F)c3)C2(Cl)Cl)ccc1Cl` (relative stereo) [Molecule F24, trans-5-(3-(3,5-Bis(trifluoromethyl)phenyl)-2,2-dichlorocyclopropanecarboxamido)-2-chloro-N-(3,3-difluorocyclobutyl)benzamide], the mortality at 50 µg/cm2 in experiment [1] and in experiment [2] was 50 to 100% in each case.
Take `N#CC1(NC(=O)c2cc(NC(=O)[C@H]3[C@H](c4cc(C(F)(F)F)cc(C(F)(F)F)c4)C3(Cl)Cl)ccc2Cl)CC1` (relative stereo) [Molecule F25, trans-5-(3-(3,5-Bis(trifluoromethyl)phenyl)-2,2-dichlorocyclopropanecarboxamido)-2-chloro-N-(1-cyanocyclopropyl)benzamide]: the mortality at 50 µg/cm2 in experiment [1] and in experiment [2] was 50 to 100% throughout.
Regarding `O=C(NC1CC(F)(F)C1)c1cc(NC(=O)[C@H]2[C@H](c3cc(Cl)cc(C(F)(F)F)c3)C2(Cl)Cl)ccc1Cl` (relative stereo) [Molecule F26, trans-2-Chloro-5-(2,2-dichloro-3-(3-chloro-5-(trifluoromethyl)phenyl)cyclopropanecarboxamido)-N-(3,3-difluorocyclobutyl)benzamide], the mortality at 50 µg/cm2 in experiment [1] and in experiment [2] was 50 to 100% in each case.
On to `N#CC1(NC(=O)c2cc(NC(=O)[C@H]3[C@H](c4cc(Cl)cc(C(F)(F)F)c4)C3(Cl)Cl)ccc2Cl)CC1` (relative stereo) [Molecule F27, trans-2-Chloro-N-(1-cyanocyclopropyl)-5-(2,2-dichloro-3-(3-chloro-5-(trifluoromethyl)phenyl)cyclopropanecarboxamido)benzamide], for which the mortality at 50 µg/cm2 in experiment [1] and in experiment [2] was 50 to 100% throughout.
Turning to `O=C(NC1CC(F)(F)C1)c1cc(NC(=O)[C@H]2[C@H](c3cc(Br)cc(Br)c3)C2(Cl)Cl)ccc1Cl` (relative stereo) [Molecule F28, trans-2-Chloro-5-(2,2-dichloro-3-(3,5-dibromophenyl)cyclopropanecarboxamido)-N-(3,3-difluorocyclobutyl)benzamide], the mortality at 50 µg/cm2 in experiment [1] and in experiment [2] was 50 to 100% throughout.
As for `N#CC1(NC(=O)c2cc(NC(=O)[C@H]3[C@H](c4cc(Br)cc(Br)c4)C3(Cl)Cl)ccc2Cl)CC1` (relative stereo) [Molecule F29, trans-2-Chloro-N-(1-cyanocyclopropyl)-5-(2,2-dichloro-3-(3,5-dibromophenyl)cyclopropanecarboxamido)benzamide], the mortality at 50 µg/cm2 in experiment [1] and in experiment [2] was 50 to 100% each time.
For the compound `O=C(NC1CC(F)(F)C1)c1cc(NC(=O)[C@H]2[C@H](c3cc(Cl)c(F)c(Cl)c3)C2(Cl)Cl)ccc1Cl` (relative stereo) [Molecule F30, trans-2-Chloro-5-(2,2-dichloro-3-(3,5-dichloro-4-fluorophenyl)cyclopropanecarboxamido)-N-(3,3-difluorocyclobutyl)benzamide], the mortality at 50 µg/cm2 in experiment [1] and in experiment [2] was 50 to 100% in each case.
Take `N#CC1(NC(=O)c2cc(NC(=O)[C@H]3[C@H](c4cc(Cl)c(F)c(Cl)c4)C3(Cl)Cl)ccc2Cl)CC1` (relative stereo) [Molecule F31, trans-2-Chloro-N-(1-cyanocyclopropyl)-5-(2,2-dichloro-3-(3,5-dichloro-4-fluorophenyl)cyclopropanecarboxamido)benzamide]: the mortality at 50 µg/cm2 in experiment [1] and in experiment [2] was 50 to 100% each time.
As for `O=C(NC1CC(F)(F)C1)c1cc(NC(=O)[C@H]2[C@H](c3ccccc3)C2(Cl)Cl)ccc1Cl` (relative stereo) [Molecule F37, trans-2-Chloro-5-(2,2-dichloro-3-phenylcyclopropanecarboxamido)-N-(3,3-difluorocyclobutyl)benzamide], the mortality at 50 µg/cm2 in experiment [1] and in experiment [2] was 50 to 100% throughout.
For the compound `N#CC1(NC(=O)c2cc(NC(=O)[C@H]3[C@H](c4ccccc4)C3(Cl)Cl)ccc2Cl)CC1` (relative stereo) [Molecule F38, trans-2-Chloro-N-(1-cyanocyclopropyl)-5-(2,2-dichloro-3-phenylcyclopropanecarboxamido)benzamide], the mortality at 50 µg/cm2 in experiment [1] and in experiment [2] was 50 to 100% throughout.
On to `Cc1cc(Cl)cc([C@H]2[C@H](C(=O)Nc3ccc(Cl)c(C(=O)NC4(C#N)CC4)c3)C2(Cl)Cl)c1` (relative stereo) [Molecule F47, trans-2-Chloro-N-(1-cyanocyclopropyl)-5-(2,2-dichloro-3-(3-chloro-5-methylphenyl)cyclopropanecarboxamido)benzamide], for which the mortality at 50 µg/cm2 in experiment [1] and in experiment [2] was 50 to 100% throughout.
For `Cc1c(Cl)cc([C@H]2[C@H](C(=O)Nc3ccc(Cl)c(C(=O)NC4(C#N)CC4)c3)C2(Cl)Cl)cc1Cl` (relative stereo) [Molecule F49, trans-2-Chloro-N-(1-cyanocyclopropyl)-5-(2,2-dichloro-3-(3,5-dichloro-4-methylphenyl)cyclopropanecarboxamido)benzamide], the mortality at 50 µg/cm2 in experiment [1] and in experiment [2] was 50 to 100% in each case.
As for `O=C(NN1CCOCC1)c1cc(NC(=O)[C@H]2[C@H](c3cc(Cl)cc(Cl)c3)C2(Cl)Cl)ccc1Cl` (relative stereo) [Molecule F52, trans-2-Chloro-5-(2,2-dichloro-3-(3,5-dichlorophenyl)cyclopropanecarboxamido)-N-morpholinobenzamide], the mortality at 50 µg/cm2 in experiment [1] and in experiment [2] was 50 to 100% in each case.
In the case of `O=C(NC1CS(=O)(=O)C1)c1cc(NC(=O)[C@H]2[C@H](c3cc(Cl)c(Cl)c(Cl)c3)C2(Cl)Cl)ccc1Cl` (relative stereo) [Molecule F58, trans-2-chloro-5-(2,2-dichloro-3-(3,4,5-trichlorophenyl)cyclopropanecarboxamido)-N-(1,1-dioxidothietan-3-yl)benzamide], the mortality at 50 µg/cm2 in experiment [1] and in experiment [2] was 50 to 100% each time.
For the compound `O=C(NC1CNC1)c1cc(NC(=O)[C@H]2[C@H](c3cc(Cl)cc(Cl)c3)C2(Cl)Cl)ccc1Cl` (relative stereo) [Molecule F59, trans-N-(azetidin-3-yl)-2-chloro-5-(2,2-dichloro-3-(3,5-dichlorophenyl)cyclopropanecarboxamido) benzamide], the mortality at 50 µg/cm2 in experiment [1] and in experiment [2] was 50 to 100% each time.
On to `O=C(NC1CN(C(=O)C(F)(F)F)C1)c1cc(NC(=O)[C@H]2[C@H](c3cc(Cl)cc(Cl)c3)C2(Cl)Cl)ccc1Cl` (relative stereo) [Molecule F60, trans-2-chloro-5-(2,2-dichloro-3-(3,5-dichlorophenyl)cyclopropanecarboxamido)-N-(1-(2,2,2-trifluoroacetyl)azetidin-3-yl)benzamide], for which the mortality at 50 µg/cm2 in experiment [1] and in experiment [2] was 50 to 100% in each case.

One may read the mortality as the percentage killed.
